From US5510247A, “Centrifugal multiphase systems and method for using the same” (University of Pittsburgh, priority 1993, dated 1996)

Experiments:
phosphotriesterase [1] = molecular target: T1, phosphotriesterase (Brevundimonas diminuta, UniProt P0A434); experiment: Batch Michaelis-Menten kinetics of phosphotriesterase with pesticide substrates in Tween 85 reversed micelles and in Tris-HCl buffer; assay type: biochemical; parameters: made in house
Procedure: Solutions of micelles were prepared in the following manner: 8 ml isopropanol was added to 13 g Tween 85 and Hexane was added to achieve a mixture of 50 ml. Water or Tris-HCl buffer (0.05M, pH 7.0) and hexane were added to this mixture to yield the desired system. […] Appropriate volumes were mixed to fill 1 ml quartz cuvettes, and the reaction was followed in a spectrophotometer. (Perkin Elmer Lambda 3). Michaelis-Menten kinetic constants (discussed below) were found by non-linear regression analysis of the initial rate data.
Enzymes function as catalysts in solution by lowering the free energy of the transition state in a reaction. Like conventional catalysts, the enzyme facilitates the reaction, but is in no way altered, so that when the reaction is completed, it is available to catalyze the conversion of more substrate molecules. When a single substrate is converted to product, the schematic of the reaction can be written [drawing 2] where S and P are substrate and product, respectively, and ES is an enzyme substrate complex. When the substrate concentration is much higher than the enzyme concentration, the enzyme is said to obey the Michaelis-Menten relationship describing the reaction rate, [formula] where (E) is the total enzyme concentration and (S) is the initial substrate concentration. KM is the saturation constant, and is a function of the individual rate constants, [formula] KM has the physical meaning as the substrate concentration which yields half the maximal reaction rate (Vmax), which is dependent on the catalytic rate constant of the chemcial step, k2, as well as the enzyme concentration,
Initial experiments were performed using paraoxon, parathion and methyl paraoxon. The effect of micelle size, pH, ionic strength and temperature have been investigated.

phosphotriesterase [2] = molecular target: T1, phosphotriesterase; experiment: Enzyme activity for paraoxon degradation and enzyme partitioning in the two-phase organic/reverse micelle system (Tween rich heavy phase, excess hexane phase); assay type: biochemical; parameters: made in house; conditions: Tween rich heavy phase of the organic/reverse micelle two-phase system
Text: As set forth above, if the products of the reaction are more soluble in the organic phase than in an aqueous phase, it is preferable to choose a system with an excess of organic phase to facilitate product removal. Such a region can be found, for example, in FIG. 2C in the lower left hand corner of the phase diagram. This region is illustrated in FIG. 12 as the shaded area.
In this region, close to the single phase region, reverse micelles form with an excess hexane phase which has a low concentration (<15 mM) of Tween with adsorbed water.

phosphotriesterase [3] = molecular target: T1, phosphotriesterase
[4] = Tris-HCl buffer, 10% Methanol added to enhance solubility

SMILES: COP(=O)(OC)Oc1ccc([N+](=O)[O-])cc1 [METHYL PARAOXON, methyl paraoxon]
- Km (phosphotriesterase [1]; Tris-HCl buffer): 0.146 mM
- Vmax (phosphotriesterase [1]; Tris-HCl buffer): 2293 µmol/mg/min
- kcat (phosphotriesterase [1]; Tris-HCl buffer): 1509 s⁻¹
- kcat /KM (phosphotriesterase [1]; Tris-HCl buffer): 10,340 mM^-1 s^-1
- Km (phosphotriesterase [1]; micelles, Wo 5.5): 17.2 ± 3.2 mM
- Vmax (phosphotriesterase [1]; micelles, Wo 5.5): 26.5 ± 2.8 µmol/mg/min
- kcat (phosphotriesterase [1]; micelles, Wo 5.5): 17 s⁻¹
- kcat /KM (phosphotriesterase [1]; micelles, Wo 5.5): 1.0 mM⁻¹ s⁻¹
- Km (phosphotriesterase [1]; micelles, Wo 28): 15.6 ± 2 mM
- Vmax (phosphotriesterase [1]; micelles, Wo 28): 43.2 ± 2.4 µmol/mg/min
- kcat (phosphotriesterase [1]; micelles, Wo 28): 28 s⁻¹
- kcat /KM (phosphotriesterase [1]; micelles, Wo 28): 1.182 mM⁻¹ s⁻¹
- Km (phosphotriesterase [1]; micelles, Wo 46): 15.3 ± 1.9 mM
- Vmax (phosphotriesterase [1]; micelles, Wo 46): 53.1 ± 3.0 µmol/mg/min
- kcat (phosphotriesterase [1]; micelles, Wo 46): 35 s⁻¹
- kcat /KM (phosphotriesterase [1]; micelles, Wo 46): 2.28 mM⁻¹ s⁻¹
- Km (phosphotriesterase [1]; micelles, Wo 66): 37.2 ± 11 mM
- Vmax (phosphotriesterase [1]; micelles, Wo 66): 192 ± 37 µmol/mg/min
- kcat (phosphotriesterase [1]; micelles, Wo 66): 126 s⁻¹
- kcat /KM (phosphotriesterase [1]; micelles, Wo 66): 3.35 mM⁻¹ s⁻¹
- Km (phosphotriesterase [1]; micelles, Wo 82): 32.9 ± 8.9 mM
- Vmax (phosphotriesterase [1]; micelles, Wo 82): 225 ± 38 µmol/mg/min
- kcat (phosphotriesterase [1]; micelles, Wo 82): 148 s⁻¹
- kcat /KM (phosphotriesterase [1]; micelles, Wo 82): 4.5 mM⁻¹ s⁻¹
- Km (phosphotriesterase [1]; micelles, Wo 122): 50 ± 19 mM
- Vmax (phosphotriesterase [1]; micelles, Wo 122): 397 ± 111 µmol/mg/min
- kcat (phosphotriesterase [1]; micelles, Wo 122): 261 s⁻¹
- kcat /KM (phosphotriesterase [1]; micelles, Wo 122): 5.2 mM⁻¹ s⁻¹

SMILES: CCOP(=O)(OCC)Oc1ccc([N+](=O)[O-])cc1 [PARAOXON, Paraoxon]
- Km (phosphotriesterase [2]): 32 mM
- kcat (phosphotriesterase [2]): 975 s⁻¹
- Vmax (phosphotriesterase [1]; Tris-HCl buffer): 1.686 ± 42 µmol/mg/min
- kcat (phosphotriesterase [1]; Tris-HCl buffer): 1,110 ± 28 s^-1
- kcat /KM (phosphotriesterase [1]; Tris-HCl buffer): 58,421 mM^-1 s^-1
- Km (phosphotriesterase [1]; micelles, Wo 6.9): 14.3 ± 3.4 mM
- Vmax (phosphotriesterase [1]; micelles, Wo 6.9): 107 ± 12 µmol/mg/min
- kcat (phosphotriesterase [1]; micelles, Wo 6.9): 70.3 ± 7.9 s⁻¹
- kcat /KM (phosphotriesterase [1]; micelles, Wo 6.9): 4.9 mM⁻¹ s⁻¹
- Km (phosphotriesterase [1]; micelles, Wo 30): 28.9 ± 3.8 mM
- Vmax (phosphotriesterase [1]; micelles, Wo 30): 430 ± 28 µmol/mg/min
- kcat (phosphotriesterase [1]; micelles, Wo 30): 283 ± 18.4 s⁻¹
- kcat /KM (phosphotriesterase [1]; micelles, Wo 30): 9.8 mM⁻¹ s⁻¹
- Km (phosphotriesterase [1]; micelles, Wo 45): 31.2 ± 8.2 mM
- Vmax (phosphotriesterase [1]; micelles, Wo 45): 556 ± 80 µmol/mg/min
- kcat (phosphotriesterase [1]; micelles, Wo 45): 366 ± 53 s⁻¹
- kcat /KM (phosphotriesterase [1]; micelles, Wo 45): 11.8 mM⁻¹ s⁻¹
- Km (phosphotriesterase [1]; micelles, Wo 69): 34.8 ± 9 mM
- Vmax (phosphotriesterase [1]; micelles, Wo 69): 992 ± 149 µmol/mg/min
- kcat (phosphotriesterase [1]; micelles, Wo 69): 653 ± 98 s⁻¹
- kcat /KM (phosphotriesterase [1]; micelles, Wo 69): 18.8 mM⁻¹ s⁻¹
- Km (phosphotriesterase [1]; micelles, Wo 86): 33.3 ± 6.7 mM
- kcat (phosphotriesterase [1]; micelles, Wo 86): 789 ± 86 s⁻¹
- kcat /KM (phosphotriesterase [1]; micelles, Wo 86): 23.7 mM⁻¹ s⁻¹
- Km (phosphotriesterase [1]; micelles, Wo 125): 29.5 ± 8.3 mM
- Vmax (phosphotriesterase [1]; micelles, Wo 125): 1.753 ± 259 µmol/mg/min
- kcat (phosphotriesterase [1]; micelles, Wo 125): 1150 ± 170 s⁻¹
- kcat /KM (phosphotriesterase [1]; micelles, Wo 125): 39.1 mM⁻¹ s⁻¹

SMILES: CCOP(=S)(OCC)Oc1ccc([N+](=O)[O-])cc1 [PARATHION, Parathion]
- Km (phosphotriesterase [1]; [4]): 0.35 ± 0.08 mM
- Vmax (phosphotriesterase [1]; [4]): 2850 ± 540 µmol/mg/min
- kcat (phosphotriesterase [1]; [4]): 1870 ± 360 s⁻¹
- kcat /KM (phosphotriesterase [1]; [4]): 5,340 mM^-1 s^-1
- Km (phosphotriesterase [1]; micelles, Wo 6): 81 ± 16 mM
- Vmax (phosphotriesterase [1]; micelles, Wo 6): 1.37 ± 0.15 µmol/mg/min
- kcat (phosphotriesterase [1]; micelles, Wo 6): 0.90 ± 0.10 s⁻¹
- kcat /KM (phosphotriesterase [1]; micelles, Wo 6): 0.011 mM⁻¹ s⁻¹
- Vmax (phosphotriesterase [1]; micelles, Wo 29): 9.7 ± 1.4 µmol/mg/min
- kcat (phosphotriesterase [1]; micelles, Wo 29): 6.4 ± 0.9 s⁻¹
- kcat /KM (phosphotriesterase [1]; micelles, Wo 29): 0.054 mM⁻¹ s⁻¹
- Vmax (phosphotriesterase [1]; micelles, Wo 45): 14.7 ± 2.4 µmol/mg/min
- kcat (phosphotriesterase [1]; micelles, Wo 45): 9.7 ± 1.6 s⁻¹
- kcat /KM (phosphotriesterase [1]; micelles, Wo 45): 0.074 mM⁻¹ s⁻¹
- Vmax (phosphotriesterase [1]; micelles, Wo 70): 28 ± 17 µmol/mg/min
- kcat (phosphotriesterase [1]; micelles, Wo 70): 18 ± 11 s⁻¹
- kcat /KM (phosphotriesterase [1]; micelles, Wo 70): 0.082 mM⁻¹ s⁻¹
- Vmax (phosphotriesterase [1]; micelles, Wo 85): 52 ± 28 µmol/mg/min
- kcat (phosphotriesterase [1]; micelles, Wo 85): 34 ± 18 s⁻¹
- kcat /KM (phosphotriesterase [1]; micelles, Wo 85): 0.082 mM⁻¹ s⁻¹

SMILES: OCCO [ethylene glycol]
- effect on enzyme activity (phosphotriesterase [3]; micelles prepared with it as a cosurfactant): enhanced enzyme activity

SMILES: CC(C)O [isopropanol]
- effect on activity of phosphotriesterase (phosphotriesterase [3]; in buffer): reduce the activity
